How the values were obtained:
caspase-3 = assay: Western blot for cleaved caspase-3 (apoptosis) after PND7 exposure; assay type: in vivo; conditions: PND7 mice, 4 h treatment (1.5% ISO in 100% O2 or peptide 8 mg/kg ip), 2 h following cessation of exposure
Experimental: 1.3.2 Anesthesia, Peptide, and Molsidomine Injections. PND7 control and experimental mice were placed in a clear plastic cone and body temperature maintained by a heating blanket set to 35° C. Vital signs and physiological monitoring were assessed using PhysioSuite® (Kent Scientific Corporation, Torrington, Conn., USA) and blood gasses were collected arterially. […] Note that lower concentrations of 02 can be used, e.g., between 20% to 100% 02, including 20%, 25%, 30%, 35%, 40%, 45%, 50%, 55%, 60%, 65%, 70%, 75%, 80%, 85%, 90%, 95%, 96%, 97%, 98%, 99%, and 100% 02. Naïve animals were left with the dams. Anesthesia was initiated with 2.4% ISO in 100% oxygen for 2 min and tapered down to 1.5% within 15 min. Exposure to 1.5% ISO was continued for 3 hours and 45 min (total 4 hours ISO). Control ‘CON’ animals were exposed to 100% oxygen only. At the end of the exposure animals were maintained in oxygen on the heating blanket for 10 min then returned to dams. […] Tao and Johns, 2008. A single injection of peptide was given ip. Separate peptide cohorts were injected in parallel with mice undergoing exposure to anesthesia or O2 control. […]
1.3.3 Western Blotting. […] Proteins were detected by enhanced chemiluminescence (Amersham, Piscataway, N.J.). […]

neuron cultures = assay: Neuron cultures, synapses (PSD95/Synaptophysin puncta) at DIV14; assay type: cell-based; conditions: isoflurane exposure at DIV7, stained at DIV14
Experimental: Neuron cultures were transfected with GFP-AAV virus at DIV-4 and were exposed to NO donor (DETA) 150 μM and sGC inhibitor (ODQ) 100 μM for 4 hrs right before exposure to gases at DIV7. Cells were returned back to incubator with half media change every second day. At DIV14, cells were fixed and stained with PSD95 and Synaptophysin. […] Scale bar is 5 μm. FIG. 23B: Synapse were analyzed using puncta analyzer plugin as shown in methods section.

[1] = tested on: PSD-95 or PSD-93 and the NMDA receptor or nNOS; conditions: clinically relevant concentrations; Fang et al., 2003; Tao et al., 2015; cited from earlier work
GFP+ neurons = conditions: early exposure to isoflurane, PND30; Kang et al., 2017; cited from earlier work
C57BL6 mice = assay: Novel object recognition at PND21; assay type: in vivo; conditions: mean ±SD, in s (unit assumed)
Experimental: 1.3.2 Anesthesia, Peptide, and Molsidomine Injections. PND7 control and experimental mice were placed in a clear plastic cone and body temperature maintained by a heating blanket set to 35° C. Vital signs and physiological monitoring were assessed using PhysioSuite® (Kent Scientific Corporation, Torrington, Conn., USA) and blood gasses were collected arterially. […] Note that lower concentrations of 02 can be used, e.g., between 20% to 100% 02, including 20%, 25%, 30%, 35%, 40%, 45%, 50%, 55%, 60%, 65%, 70%, 75%, 80%, 85%, 90%, 95%, 96%, 97%, 98%, 99%, and 100% 02. Naïve animals were left with the dams. Anesthesia was initiated with 2.4% ISO in 100% oxygen for 2 min and tapered down to 1.5% within 15 min. Exposure to 1.5% ISO was continued for 3 hours and 45 min (total 4 hours ISO). Control ‘CON’ animals were exposed to 100% oxygen only. At the end of the exposure animals were maintained in oxygen on the heating blanket for 10 min then returned to dams. […] Tao and Johns, 2008. A single injection of peptide was given ip. Separate peptide cohorts were injected in parallel with mice undergoing exposure to anesthesia or O2 control. Purification of fusion peptides was performed by Creative BioMart (Shirley, N.Y.) and verified by Coomassie blue staining and Western blot analysis and then stored in 10% glycerol/phosphate buffered saline at −80° C. until use. The Tat-PSD-95 PDZ2WT and MUT plasmids used to generate proteins containing an amino-terminal, in-frame, 11-amino-acid, minimal transduction domain (residues 47-57 of human immunodeficiency virus Tat protein) termed Tat. […] Fang et al., 2003. The NO donor molsidomine [(N-[ethoxycarbonyl]-3-[4-morpholinosydnomine] (Sigma, St. Louis, Mo.) was injected at 4 mg/kg into mice ip in 100 μL sterile saline as previously described. The NO donor was added immediately following cessation of anesthesia or control (O2) exposure, i.e., the NO donor was injected 4 hours after onset of anesthesia. One of ordinary skill in the art upon review of the present disclosure would appreciate that the NO donor could be administered at other times during anesthesia, including at the onset of anesthesia. Control animals were injected ip with the vehicle (saline).
1.3.7 Novel Object Recognition. The novel object recognition (NOR) procedure was based upon the original Ennaceur et al., 1988, procedure and was used to assess nonspatial hippocampal memory. Clark et al., 2000; Baker and Kim, 2002; Reger et al., 2009. It consisted of a training ‘familiarization’ phase followed by a testing phase. During training, mice were allowed to freely explore within an opaque box (40 cm W×40 cm L×34 cm H) containing two identical objects for 10 min. Data were recorded with a video camera and time spent with each object was recorded using ANYmaze software (Stoelting). Object investigation time was determined by the amount of time the mouse spent in the zone immediately surrounding the object. […] After 2 h, object recognition was tested, using the same procedure as in training except that a novel object was substituted for one of the familiar training objects and mice were allowed to explore for 5 min. Mice inherently prefer to explore novel objects; thus, a preference for the novel object indicates intact memory for the familiar object.

NR2B = assay: Western blot of hippocampal synaptic fractions: NR2B; assay type: in vivo; conditions: one day after PND7 mice exposed to isoflurane (1.5% ISO in O2, 4 h)
Experimental: One day after PND7 mice were exposed to isoflurane (1.5% ISO in O2, 4 h), we harvested hippocampal tissues for Western blotting to assess the expression of receptors and MAGUKs. […] (N=9). A *p<0.05 was considered significant. […] Data shown as % actin;

[2] = PSD93KO mice exposed to ISO at PND7, tested at PND21
[3] = WT mice exposed at PND7, tested at PND21

For FC(F)OC(Cl)C(F)(F)F (racemic) [ISO, (RS)-2-chloro-2-(difluoromethoxy)-1,1,1-trifluoroethane], the “cleaved caspase-3 (Western blot)” value (caspase-3) is listed as “did not yield any detectable cleaved caspase”, the “synapses at DIV14 after exposure” value (neuron cultures) is listed as “loss of synapse” and the “PDZ domain-mediated protein interactions” value [1] is listed as “can disrupt PDZ domain-mediated protein-protein interactions in vitro and in vivo”. For the same compound, the “total dendritic length and Sholl analysis of dendritic complexity” value (GFP+ neurons) was “marked overgrowth of dendritic arbors”, the “investigation time of the known object” value (C57BL6 mice; [2]) was 29±13 and the “investigation time of the novel object” value (C57BL6 mice; [2]) was 42±20. For the same compound, the “investigation time of the known object” value (C57BL6 mice; [3]) was 18±12, the “investigation time of the novel object” value (C57BL6 mice; [3]) was 29±11 and the “amount of NR2B in synaptic fractions” value (NR2B) was “significant increase”.

Reference: US20220087970A1, “PREVENTION OF ANESTHETIC-INDUCED NEUROCOGNITIVE DYSFUNCTION” (The Johns Hopkins University, priority 2019, published 2022)
